Laboratory results as given in patent US9999612B2, “PPARs agonist activity enhancing drug” (Tsujimoto Chemical Co., Ltd., priority 2012, dated 2018).

Experiments:
[1] = test system: PPARα; assay: PPARα agonist activity, reporter gene assay using COS-1 cells; assay type: cell-based; conditions: for PPARα agonist activity, ratio to WY14643 50 μM (= 1.00): FIG. 1; for PPARα agonist activity: study of aliphatic chain length of δ-lactones; for difference between PPARα values of the R and S bodies: 25 μM, FIG. 6
Procedure: (§1) The agonist activities of PPARα, PPARδ and PPARγ, respectively, were visually verified by a reporter gene assaying method using COS-1 cells so as to evaluate them. The evaluation method is as below.
(§2) The COS-1 cells were collected by trypsinization, centrifuged (1000 rpm, 4° C., 3 min.), and then seeded on a 60 mm Petri dish for cultivation in a density of 6×10^5 cells/well. After cultivation at 37° C. under 5% CO2 for 24 hours, cells were transformed using […]® Transfection Reagent (QIAGEN®). EC buffer ([…]), pPPARα-GAL4 (0.25 μg), pPPARδ-GAL4 (0.25 μg) or pPPARγ-GAL4 (0.25 μg), p17M2G (1 μg), pSEAP control vector (1 μg) were put into a 1.5 ml Eppendorf tube, to which 18 μl of Enhancer was added, and stirred by a vortex for 1 second. This was left to stand at room temperature for 3 minutes, to which 25 μl of Effectene was added, stirred by the voltex for 10 seconds, and left to stand at room temperature for 7 minutes. Simultaneously, the medium for transformation in the 60 mm Petri dish for cultivation was removed, to which […] of medium was added to exchange the medium. Seven minutes later, 1 ml of medium was added to the Eppendorf tube, suspended twice, dropped to a 60 mm Petri dish for cultivation, and cultivated 37° C. under 5% CO2 for 16 hours.
(§3) The cells were collected by trypsinization after 16 hours, centrifuged (1000 rpm, 4° C., 3 min.), and then suspended in 6 ml of medium, and seeded on a 96-well plate at 125 μl/well. The sample solution was added at 1.25 μl/well after 2-3 hours, and cultivated 37° C. under 5% CO2 for 24 hours. Then the medium was collected at 25 μl/well, a secreted alkaline phosphatase (SEAP) activity was measured using GREAT ESCAPE™ SEAP (Clontech Laboratories, Inc.) kit. As the outline, 1× dilution buffer was added at 25 μl/well, mildly stirred, sealed with a scotch tape, and incubated at 65° C. for 30 minutes. Subsequently, it was cooled at 4° C., and returned to room temperature, then an assay buffer was added at 90 μl/well. It was left to stand at room temperature for 5 minutes, to which 10 μl of MUP solution was added at 10 μl/well. At room temperature, it was left to stand in a dark room for 1 hour, and then fluorescence intensity based on 4-methylumbelliferyl phosphate (Ex=360 nm, Em=460 nm) was measured.
(§4) In order to measure the activity for PPARα, luciferase activity measuring cocktail (Invitrogen) was added to other 96 well plate at 100 μl/well to measure the emission intensity. Compensation among each well was performed by dividing the measured value of the luciferase activity by the SEAP activity value.
7 to 9, i.e. C9 to C11 in which the α and β positions in the lactone ring of the raw material are substituted by double bonds, which are the compounds of the present invention. […] The structure of carbon number C8 lacks one side chain in the carbon number C9, and the structure of carbon number C12 adds one side chain to the carbon number C11, in which no double bond is provided. The carbon numbers C9 to C11 represents numbers of the carbon atoms in the compounds of Chemical formulae 4 to 6 and Chemical formulae 7 to 9.

[2] = test system: PPARδ; assay: PPARδ agonist activity, reporter gene assay using COS-1 cells; assay type: cell-based
Procedure: as §1, §2, §3
(§5) Concentrations of the samples to be evaluated are 50 μM and 5 μM.

[3] = test system: PPARγ; assay: PPARγ agonist activity, reporter gene assay using COS-1 cells; assay type: cell-based; conditions: for PPARγ agonist activity compared with control substance 10 μM Trogliazone: 50 μM
Procedure: as §1, §2, §3, §5

[4] = biological target: T1, PPARα (Homo sapiens, UniProt Q07869); assay: Activity test using HepG2 cells: ACS and CPT1A gene expression (PPARα agonist activity); assay type: cell-based; conditions: C11 at 50 μM and 25 μM, FIG. 4
T1 construct: endogenous in cells; host or cells: HepG2
T1 sequence (Q07869 1-468): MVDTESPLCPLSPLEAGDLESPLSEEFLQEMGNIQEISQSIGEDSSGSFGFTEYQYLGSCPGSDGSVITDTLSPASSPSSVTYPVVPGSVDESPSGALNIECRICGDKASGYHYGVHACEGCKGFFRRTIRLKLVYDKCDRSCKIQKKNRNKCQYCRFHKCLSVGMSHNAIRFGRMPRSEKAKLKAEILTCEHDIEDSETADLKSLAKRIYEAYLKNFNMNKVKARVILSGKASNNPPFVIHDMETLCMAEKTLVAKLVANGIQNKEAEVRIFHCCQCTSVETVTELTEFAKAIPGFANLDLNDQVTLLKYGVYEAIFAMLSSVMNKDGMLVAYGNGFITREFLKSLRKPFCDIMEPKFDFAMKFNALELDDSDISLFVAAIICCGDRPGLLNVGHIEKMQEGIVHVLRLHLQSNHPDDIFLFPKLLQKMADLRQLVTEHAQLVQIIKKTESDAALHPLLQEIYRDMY
Procedure: Next, a novel compound C11 was focused, and further activity tests using HepG2 cells were carried out. […] In the figure, GAPDH represents a housekeeping indicator, ACS represents expression of lipid metabolism gene, and CPT1A represents expression of lipolytic gene. As a drug for comparison, Bezafibrate known as PPARα agonist activity enhancer was used with 50 μM dilution, and the compound C11 of the present invention was used at concentrations of 50 μM and 25 μM.

[5] = test system: PPARγ; assay: Differentiation induction method using 3T3-L1 cells: fat cell differentiation induction-associated gene expression (Adiponectine); assay type: cell-based, mouse; conditions: 25 μM, 12 μM and 6 μM, FIG. 5
Procedure: Subsequently, an agonist activity test on fat cell differentiation induction-associated genes was similarly carried out for C11, and the results are shown in FIG. 5. In this test, the differentiation induction method using 3T3-L1 cells was conducted. For preparing samples, a plate having a total of 24 depressions of 6 lines×4 rows was used, and a known mouse fat cells was used to observe PPARγ agonist activities. In relation to 5 samples shown in the figure, in order from the right, a sample without insulin administration, a sample dosed with 1.7 μM of insulin, a sample dosed with 25 μM of C11 compound, a sample dosed with 12 μM of C11 compound and a sample dosed with 6 μM of C11 compound are shown. CAPDH is a housekeeping indicator, C/EBPα is a control, and Adiponectine is an expressed gene.

[6] = test system: PPARs; assay: PPARs agonist activity, collective evaluation (PPARα, δ and γ); assay type: cell-based; conditions: for difference between activities of the R body and the S body, three PPARs: FIG. 6, three tests averaged
Procedure: as §1, §2
The cells were collected by trypsinization after 16 hours, centrifuged (1000 rpm, 4° C., 3 min.), and then suspended in 6 ml of medium, and seeded on a 96-well plate at 125 μl/well. […] Then the medium was collected at 25 μl/well, a secreted alkaline phosphatase (SEAP) activity was measured using GREAT ESCAPE™ SEAP (Clontech Laboratories, Inc.) kit. […] At room temperature, it was left to stand in a dark room for 1 hour, and then fluorescence intensity based on 4-methylumbelliferyl phosphate (Ex=360 nm, Em=460 nm) was measured.
as §4

[7] = study of aliphatic chain length of δ-lactones

Cc1cccc(Nc2cc(Cl)nc(SCC(=O)O)n2)c1C [WY14643]
PPARα agonist activity, ratio to WY14643 50 μM (= 1.00) ([1]; 50 μM): 1.00

CCCCC1CCCC(=O)O1 (stereo not shown) [δ-nonanolactone, 6-butyltetrahydro-2H-pyran-2-one]
PPARα agonist activity [1]: strong agonist activity | PPARδ agonist activity [2, 7]: strong agonist activity | PPARγ agonist activity [3, 7]: strong agonist activity

CCCCCCCC1CCCC(=O)O1 (stereo not shown) [C12, 6-heptyltetrahydro-2H-pyran-2-one]
PPARα agonist activity, ratio to WY14643 50 μM (= 1.00) ([1]; 5 μM): did not show strong activity | PPARα agonist activity, ratio to WY14643 50 μM (= 1.00) ([1]; 50 μM): did not show strong activity | PPARδ agonist activity ([2]; 5 μM, FIG. 2): little activity | PPARγ agonist activity ([3]; 5 μM, FIG. 3): little activities | PPARγ agonist activity compared with control substance 10 μM Trogliazone ([3]; FIG. 3): considerably lower activities than the values of C9 to C11

CCCCCCC1CC=CC(=O)O1 (stereo not shown) [C11, 6-hexyl-5,6-dihydro-2H-pyran-2-one]
gene expression (ACS, CPT1A) compared with Bezafibrate 50 μM [4]: at least equal to or greater than that of Bezafibrate | activity on fat cell differentiation induction-associated genes (Adiponectine expression) [5]: effective activities

CCCCCC1CCCC(=O)O1 (stereo not shown) [δ-decanolactone, 6-pentyltetrahydro-2H-pyran-2-one]
PPARα agonist activity [1]: strong agonist activity | PPARδ agonist activity [2, 7]: strong agonist activity | PPARγ agonist activity [3, 7]: strong agonist activity | activity of lactone structures (ring size comparison γ, δ, ϵ) ([6]; comparison of γ-, δ- and ϵ-decanolactone): relatively strong activity

CCCCC[C@@H]1CC=CC(=O)O1 [R body, (R)-6-pentyl-5,6-dihydro-2H-pyran-2-one]
difference between PPARα values of the R and S bodies [1]: significant difference | difference between activities of the R body and the S body, three PPARs [6]: no significant difference

CCCCC[C@H]1CC=CC(=O)O1 [S body, (S)-6-pentyl-5,6-dihydro-2H-pyran-2-one]
difference between PPARα values of the R and S bodies [1]: significant difference | difference between activities of the R body and the S body, three PPARs [6]: no significant difference

CCCC1CCCC(=O)O1 (stereo not shown) [C8, 6-propyltetrahydro-2H-pyran-2-one]
PPARα agonist activity, ratio to WY14643 50 μM (= 1.00) ([1]; 5 μM): can hardly be expected for the activity | PPARδ agonist activity ([2]; 5 μM, FIG. 2): little activity | PPARγ agonist activity ([3]; 5 μM, FIG. 3): little activities | PPARγ agonist activity compared with control substance 10 μM Trogliazone ([3]; FIG. 3): considerably lower activities than the values of C9 to C11

CCCCCCC1CCCC(=O)O1 (stereo not shown) [δ-undecanolactone, 6-hexyltetrahydro-2H-pyran-2-one]
PPARα agonist activity [1]: strong agonist activity | PPARδ agonist activity [2, 7]: strong agonist activity
